Key:
lipoamide = compound: NC(=O)CCCCC1CCSS1 [lipoamide]; test: thermal stability z-score vs DMSO; higher = more thermally stabilized by treatment; settings: HeLa, lipoamide concentration 100 µM
Protocol: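 Cellular thermal proteome profiling in HeLa cells. Cells were treated with 100 µM lipoamide for 1 h, with or without 1 mM arsenate for a further 1 h, then heated to ten temperatures (37-66.3 °C), and soluble protein was quantified by TMT mass spectrometry relative to 0.1% DMSO controls. The thermal stability score (sum of log2 fold changes minus the abundance score) was transformed to a z-score; mean of n = 3 experiments.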

potassium arsenate = compound: O=[As]([O-])(O)O.[K+] [potassium arsenate]; test: as above; settings: HeLa; arsenate concentration 1 mM
Protocol: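 Cellular thermal proteome profiling in HeLa cells treated with 1 mM arsenate for 1 h (DMSO pretreatment), heated to ten temperatures (37-66.3 °C). Soluble protein was quantified by TMT mass spectrometry relative to DMSO controls; the thermal stability score was transformed to a z-score; mean of n = 3 experiments.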

[1] = arsenate co-treatment: 1 mM arsenate 1 h
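Also: each temperature applied for 3 min, abundance score taken as mean log2 fold change at the two lowest temperatures, z-score obtained by mean subtraction and division by SD.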

Chain of UniProt Q8NAN2 (Q8NAN2 whole entry): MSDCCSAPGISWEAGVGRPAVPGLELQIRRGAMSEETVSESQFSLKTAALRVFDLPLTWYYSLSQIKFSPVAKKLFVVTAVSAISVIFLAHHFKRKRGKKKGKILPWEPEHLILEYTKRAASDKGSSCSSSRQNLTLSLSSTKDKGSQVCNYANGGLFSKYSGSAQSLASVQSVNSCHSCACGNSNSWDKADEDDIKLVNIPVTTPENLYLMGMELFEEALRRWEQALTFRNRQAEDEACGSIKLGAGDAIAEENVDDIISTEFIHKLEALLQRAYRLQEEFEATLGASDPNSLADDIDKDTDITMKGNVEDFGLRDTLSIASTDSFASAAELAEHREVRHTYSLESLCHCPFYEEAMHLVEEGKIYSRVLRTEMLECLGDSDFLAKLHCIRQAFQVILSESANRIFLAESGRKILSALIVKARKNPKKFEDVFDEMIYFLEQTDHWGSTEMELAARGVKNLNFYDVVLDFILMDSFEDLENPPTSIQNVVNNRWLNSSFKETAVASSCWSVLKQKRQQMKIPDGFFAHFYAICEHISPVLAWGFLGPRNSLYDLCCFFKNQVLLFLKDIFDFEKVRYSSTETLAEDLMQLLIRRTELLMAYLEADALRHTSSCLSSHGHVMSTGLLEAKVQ
Chain of UniProt Q9H3H1 (Q9H3H1 whole entry): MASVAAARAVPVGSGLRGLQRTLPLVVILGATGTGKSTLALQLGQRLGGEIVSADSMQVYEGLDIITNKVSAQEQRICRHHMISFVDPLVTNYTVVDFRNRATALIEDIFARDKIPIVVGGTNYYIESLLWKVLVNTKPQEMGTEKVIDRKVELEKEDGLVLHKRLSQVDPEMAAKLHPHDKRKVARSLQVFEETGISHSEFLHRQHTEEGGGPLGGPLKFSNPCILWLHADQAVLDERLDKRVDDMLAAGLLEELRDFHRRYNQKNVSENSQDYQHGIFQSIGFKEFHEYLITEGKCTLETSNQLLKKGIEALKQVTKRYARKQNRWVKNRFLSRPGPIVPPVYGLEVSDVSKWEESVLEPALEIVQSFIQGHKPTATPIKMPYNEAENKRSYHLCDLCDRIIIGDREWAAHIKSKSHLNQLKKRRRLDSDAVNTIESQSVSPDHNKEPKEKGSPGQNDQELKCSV
Chain of UniProt O95861 (O95861 whole entry): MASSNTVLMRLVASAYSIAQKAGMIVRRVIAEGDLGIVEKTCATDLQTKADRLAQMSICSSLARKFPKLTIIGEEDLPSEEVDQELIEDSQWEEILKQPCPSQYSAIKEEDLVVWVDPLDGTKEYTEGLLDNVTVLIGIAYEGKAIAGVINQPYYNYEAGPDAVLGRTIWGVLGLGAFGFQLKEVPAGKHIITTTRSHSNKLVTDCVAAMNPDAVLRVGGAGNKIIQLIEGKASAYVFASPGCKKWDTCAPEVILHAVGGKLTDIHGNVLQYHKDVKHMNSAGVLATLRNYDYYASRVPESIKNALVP
Chain of UniProt Q9H1Z4 (Q9H1Z4 whole entry): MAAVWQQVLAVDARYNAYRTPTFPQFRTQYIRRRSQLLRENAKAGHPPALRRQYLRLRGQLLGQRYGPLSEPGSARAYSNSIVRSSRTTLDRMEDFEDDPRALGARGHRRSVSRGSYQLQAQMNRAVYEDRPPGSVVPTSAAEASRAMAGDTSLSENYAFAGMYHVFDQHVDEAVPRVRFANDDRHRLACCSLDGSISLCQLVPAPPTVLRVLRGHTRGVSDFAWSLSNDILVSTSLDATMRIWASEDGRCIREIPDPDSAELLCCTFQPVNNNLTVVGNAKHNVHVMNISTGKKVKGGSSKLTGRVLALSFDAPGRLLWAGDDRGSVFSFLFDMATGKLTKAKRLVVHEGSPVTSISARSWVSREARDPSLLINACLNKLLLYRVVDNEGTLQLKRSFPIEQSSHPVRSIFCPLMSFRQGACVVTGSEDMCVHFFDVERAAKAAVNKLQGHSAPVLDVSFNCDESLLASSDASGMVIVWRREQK
Chain of UniProt Q16822 (Q16822 whole entry): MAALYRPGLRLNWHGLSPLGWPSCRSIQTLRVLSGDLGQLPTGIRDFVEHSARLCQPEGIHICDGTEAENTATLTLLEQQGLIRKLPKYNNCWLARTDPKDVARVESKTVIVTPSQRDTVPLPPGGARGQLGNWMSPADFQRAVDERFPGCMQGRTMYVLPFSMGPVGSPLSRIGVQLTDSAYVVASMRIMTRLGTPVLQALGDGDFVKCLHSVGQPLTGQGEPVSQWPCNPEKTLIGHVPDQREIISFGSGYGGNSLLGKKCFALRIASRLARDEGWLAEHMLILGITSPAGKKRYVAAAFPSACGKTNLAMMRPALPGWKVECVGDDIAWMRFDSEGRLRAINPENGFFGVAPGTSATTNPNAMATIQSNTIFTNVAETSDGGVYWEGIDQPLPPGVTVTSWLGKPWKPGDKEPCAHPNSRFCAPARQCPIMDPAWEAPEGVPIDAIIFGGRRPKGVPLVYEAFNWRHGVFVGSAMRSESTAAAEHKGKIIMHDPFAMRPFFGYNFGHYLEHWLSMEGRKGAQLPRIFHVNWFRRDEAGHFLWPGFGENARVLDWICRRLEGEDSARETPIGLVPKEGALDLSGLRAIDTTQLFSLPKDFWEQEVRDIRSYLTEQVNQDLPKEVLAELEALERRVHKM
Chain of UniProt P06753 (P06753 whole entry): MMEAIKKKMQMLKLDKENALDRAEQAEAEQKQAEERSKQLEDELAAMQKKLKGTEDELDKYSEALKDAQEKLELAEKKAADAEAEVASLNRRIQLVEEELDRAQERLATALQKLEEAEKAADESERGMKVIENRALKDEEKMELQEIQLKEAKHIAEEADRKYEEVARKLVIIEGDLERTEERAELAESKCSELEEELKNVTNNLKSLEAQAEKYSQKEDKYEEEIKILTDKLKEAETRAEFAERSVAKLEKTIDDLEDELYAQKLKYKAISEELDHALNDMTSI
Chain of UniProt P02786 (P02786 whole entry, looked up): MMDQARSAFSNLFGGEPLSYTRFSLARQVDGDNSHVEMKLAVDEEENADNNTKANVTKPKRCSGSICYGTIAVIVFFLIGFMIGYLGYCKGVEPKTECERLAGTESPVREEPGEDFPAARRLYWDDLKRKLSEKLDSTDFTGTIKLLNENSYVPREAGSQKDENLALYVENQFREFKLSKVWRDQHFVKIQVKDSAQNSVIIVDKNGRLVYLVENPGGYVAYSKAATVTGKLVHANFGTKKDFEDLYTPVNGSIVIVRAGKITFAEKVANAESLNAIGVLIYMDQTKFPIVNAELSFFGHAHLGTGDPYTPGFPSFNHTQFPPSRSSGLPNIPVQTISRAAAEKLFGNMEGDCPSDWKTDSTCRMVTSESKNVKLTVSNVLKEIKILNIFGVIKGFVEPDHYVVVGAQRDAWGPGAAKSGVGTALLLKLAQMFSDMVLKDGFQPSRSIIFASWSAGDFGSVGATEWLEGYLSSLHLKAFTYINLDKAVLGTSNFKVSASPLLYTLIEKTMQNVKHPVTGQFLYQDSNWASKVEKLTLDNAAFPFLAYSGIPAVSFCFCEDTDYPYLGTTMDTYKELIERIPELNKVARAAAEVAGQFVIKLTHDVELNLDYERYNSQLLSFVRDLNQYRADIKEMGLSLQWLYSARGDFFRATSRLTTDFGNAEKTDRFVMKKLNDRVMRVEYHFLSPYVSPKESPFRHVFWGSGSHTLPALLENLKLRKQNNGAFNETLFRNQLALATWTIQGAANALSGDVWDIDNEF
Chain of UniProt O43657 (O43657 whole entry): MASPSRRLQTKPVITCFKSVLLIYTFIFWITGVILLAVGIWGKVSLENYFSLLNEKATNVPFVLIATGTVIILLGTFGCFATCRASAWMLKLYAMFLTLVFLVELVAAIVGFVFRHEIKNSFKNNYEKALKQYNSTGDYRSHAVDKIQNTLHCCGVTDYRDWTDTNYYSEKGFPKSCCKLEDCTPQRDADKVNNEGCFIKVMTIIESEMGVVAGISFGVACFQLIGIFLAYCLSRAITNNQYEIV
Chain of UniProt P33993 (P33993 whole entry): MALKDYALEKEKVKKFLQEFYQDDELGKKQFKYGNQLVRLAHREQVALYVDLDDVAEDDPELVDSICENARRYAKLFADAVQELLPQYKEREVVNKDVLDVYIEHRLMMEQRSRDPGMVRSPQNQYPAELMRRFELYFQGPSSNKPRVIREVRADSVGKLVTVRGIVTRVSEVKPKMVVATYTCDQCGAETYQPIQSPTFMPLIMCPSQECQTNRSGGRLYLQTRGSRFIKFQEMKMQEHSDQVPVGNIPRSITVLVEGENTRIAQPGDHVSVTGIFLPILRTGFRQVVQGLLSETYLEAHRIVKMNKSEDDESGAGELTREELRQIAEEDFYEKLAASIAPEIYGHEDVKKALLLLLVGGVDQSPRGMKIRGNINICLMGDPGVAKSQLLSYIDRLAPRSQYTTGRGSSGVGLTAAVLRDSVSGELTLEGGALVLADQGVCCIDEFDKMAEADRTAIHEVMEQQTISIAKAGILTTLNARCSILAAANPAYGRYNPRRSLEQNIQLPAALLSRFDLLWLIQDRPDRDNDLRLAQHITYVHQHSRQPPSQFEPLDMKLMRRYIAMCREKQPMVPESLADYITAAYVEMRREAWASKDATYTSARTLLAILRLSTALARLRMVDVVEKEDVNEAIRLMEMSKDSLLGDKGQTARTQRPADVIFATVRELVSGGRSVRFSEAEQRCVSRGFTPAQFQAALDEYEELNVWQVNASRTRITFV
Chain of UniProt P48739 (P48739 whole entry): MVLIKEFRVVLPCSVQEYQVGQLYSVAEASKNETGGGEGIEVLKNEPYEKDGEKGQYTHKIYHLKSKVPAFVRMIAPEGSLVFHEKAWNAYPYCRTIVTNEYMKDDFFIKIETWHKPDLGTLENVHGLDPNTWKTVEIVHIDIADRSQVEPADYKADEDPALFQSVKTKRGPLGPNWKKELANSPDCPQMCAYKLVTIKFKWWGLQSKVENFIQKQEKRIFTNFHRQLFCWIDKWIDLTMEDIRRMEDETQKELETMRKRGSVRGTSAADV
Chain of UniProt O95166 (O95166 whole entry): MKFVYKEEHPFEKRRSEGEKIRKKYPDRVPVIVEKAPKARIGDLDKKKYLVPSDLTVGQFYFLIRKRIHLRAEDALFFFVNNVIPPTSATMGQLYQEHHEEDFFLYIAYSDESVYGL

Target	thermal stability z-score (lipoamide; [1])	thermal stability z-score (lipoamide; arsenate co-treatment: none)	thermal stability z-score (potassium arsenate)
ARHGAP27 (UniProt Q6ZUM4)	-0.103	-0.156	-0.309
MAGOH|MAGOHB	0.0953	0.171	0.0412
CDC42EP1 (UniProt Q00587)	-0.844	-0.776	0.213
PRKACA (UniProt P17612)	0.104	0.151	0.535
SCML2 (UniProt Q9UQR0)	-0.0267	-0.0968	-0.22
ITPRIP (UniProt Q8IWB1)	-0.976	-0.936	-0.289
ATPAF1 (UniProt Q5TC12)	-0.471	-0.084	-0.64
CAT (UniProt P04040)	0.883	1.41	0.346
MCM7 (UniProt P33993)	-0.43	-0.294	-0.228
PDSS1 (UniProt Q5T2R2)	0.272	0.466	0.423
H6PD (UniProt O95479)	-1.51	-1.8	-0.472
RPE (UniProt Q96AT9)	0.536	0.285	-0.0195
LARP7 (UniProt Q4G0J3)	0.34	0.152	0.0679
ITFG2 (UniProt Q969R8)	1.01	0.534	-0.266
PGRMC2 (UniProt O15173)	0.682	0.466	0.479
BCLAF1 (UniProt Q9NYF8)	1.93	0.229	-1.11
BPNT1 (UniProt O95861)	-0.0659	-0.197	-1.66
LAP3 (UniProt P28838)	0.405	0.407	1.29
PCK2 (UniProt Q16822)	-0.107	-0.0889	0.352
RPAP1 (UniProt Q9BWH6)	-0.806	-0.223	0.256
CLASP1 (UniProt Q7Z460)	-0.602	-0.311	-0.0658
PPP1R10 (UniProt Q96QC0)	0.565	0.255	0.332
SFXN3 (UniProt Q9BWM7)	0.507	0.279	0.16
SNX16 (UniProt P57768)	1.01	-0.515	-0.741

Target	thermal stability z-score (lipoamide; [1])	thermal stability z-score (lipoamide; arsenate co-treatment: none)	thermal stability z-score (potassium arsenate)
NAGPA (UniProt Q9UK23)	-0.847	-0.928	-1.05
BOLA2 (UniProt Q9H3K6)	0.16	0.49	0.583
FAM83H (UniProt Q6ZRV2)	-0.0915	0.0556	0.0326
TPM3 (UniProt P06753)	0.676	0.821	0.131
GALNT10 (UniProt Q86SR1)	-0.462	0.0888	0.557
TFRC (UniProt P02786)	0.193	0.202	0.144
RAE1 (UniProt P78406)	0.676	1.04	0.662
BSG (UniProt P35613)	0.714	0.573	0.265
DDX50 (UniProt Q9BQ39)	0.262	0.192	-0.49
LAS1L (UniProt Q9Y4W2)	-0.0675	-0.132	-0.116
SLC7A6 (UniProt Q92536)	-0.86	-0.83	-0.695
NT5DC2 (UniProt Q9H857)	0.0403	-0.251	0.13
ERP44 (UniProt Q9BS26)	-2.86	-2.35	0.885
ANKRD54 (UniProt Q6NXT1)	-0.042	-0.267	-0.49
NAMPT (UniProt P43490)	0.551	0.0412	-0.494
RPL7 (UniProt P18124)	1.02	0.379	-0.13
STAG2 (UniProt Q8N3U4)	0.281	0.393	-0.0489
ILKAP (UniProt Q9H0C8)	0.624	0.292	-0.406
SOCS6 (UniProt O14544)	0.0176	0.0429	0.053
CFAP36 (UniProt Q96G28)	0.177	0.267	0.177
RIC8A (UniProt Q9NPQ8)	-0.305	-0.238	0.476
MLYCD (UniProt O95822)	0.771	0.713	0.837
PPL (UniProt O60437)	-0.117	-0.141	0.125
PRPF31 (UniProt Q8WWY3)	-0.0354	-0.524	-0.687

Target	thermal stability z-score (lipoamide; [1])	thermal stability z-score (lipoamide; arsenate co-treatment: none)	thermal stability z-score (potassium arsenate)
PNPLA8 (UniProt Q9NP80)	0.00209	0.148	-0.332
TRIT1 (UniProt Q9H3H1)	-0.0696	-0.0898	0.0151
TSPAN6 (UniProt O43657)	0.216	0.486	0.466
PC (UniProt P11498)	-0.429	-0.205	-0.574
DCBLD2 (UniProt Q96PD2)	0.0564	0.109	-0.505
QKI (UniProt Q96PU8)	-0.625	0.069	0.0813
FAM213A (UniProt Q9BRX8)	-0.192	-0.476	-0.29
CHEK1 (UniProt O14757)	0.0611	-0.137	-0.526
PITPNB (UniProt P48739)	-0.0644	0.129	-1.18
FAM73A (UniProt Q8NAN2)	-0.106	0.0979	0.164
POLR2E (UniProt P19388)	0.281	0.459	-1.34
GKAP1 (UniProt Q5VSY0)	0.161	0.36	-0.0462
GABARAP (UniProt O95166)	-0.21	-0.417	-0.223
TMEM59 (UniProt Q9BXS4)	-1.01	-0.383	-0.0618
BCS1L (UniProt Q9Y276)	0.472	0.86	0.3
THEM6 (UniProt Q8WUY1)	0.308	0.289	0.723
FUCA2 (UniProt Q9BTY2)	-0.251	-0.214	1.09
FUBP1 (UniProt Q96AE4)	0.139	0.157	0.0234
SARS2 (UniProt Q9NP81)	-0.781	-0.828	-0.442
EPM2AIP1 (UniProt Q7L775)	-0.0474	0.0432	-0.0491
WDR13 (UniProt Q9H1Z4)	-0.241	-0.115	-0.408
UniProt F8W031	-3.73	-2.58	0.325
ISY1 (UniProt Q9ULR0)	0.997	0.693	-0.872

From the supplement of paper PMC12463676, “Small-molecule dissolution of stress granules by redox modulation benefits ALS models” (Nature Chemical Biology, 2025)
